Experiments:
Assay type in all cases: biochemical
Pim-1 = Pim-1 (Homo sapiens (Human), UniProt P11309); assay: Pim-1 kinase assay; conditions: 1 mM ATP; read-out: Pim1 IC50
Method: Supplementation of the STOP buffer with beads and stopping the reactions were done under reduced light. Prior to the stopping reactions STOP buffer with beads was preincubated for 1 h in the dark at room temperature. After stopping the reactions, plates were incubated for 1 h in the dark at room temperature before reading on a PHERAstar FS plate reader (BMG Labtech) under reduced light.

Pim-2 = Pim-2 (Homo sapiens (Human), UniProt Q9P1W9); assay: Pim-2 kinase assay; conditions: 1 mM ATP; read-out: Pim2 IC50
Pim-2, sequence (Q9P1W9 whole entry): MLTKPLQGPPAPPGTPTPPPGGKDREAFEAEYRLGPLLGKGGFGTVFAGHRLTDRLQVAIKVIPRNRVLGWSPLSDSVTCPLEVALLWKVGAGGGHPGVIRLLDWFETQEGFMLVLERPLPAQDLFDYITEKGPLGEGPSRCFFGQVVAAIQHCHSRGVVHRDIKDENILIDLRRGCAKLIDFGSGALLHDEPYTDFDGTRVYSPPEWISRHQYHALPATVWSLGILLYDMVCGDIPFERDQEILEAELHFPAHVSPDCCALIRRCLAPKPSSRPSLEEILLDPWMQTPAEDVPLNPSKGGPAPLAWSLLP
Method: Pim-2 kinase assay—20 μL reactions were run in white 384 well polystyrene plates dotted with 0.8 μL compound/DMSO in the assay buffer (50 mM Tris, pH 7.5, 0.01% Tween-20, 5 mM mgCl2, 0.01% BSA, 5 mM DTT), containing […] Fluorescein-labeled CREBtide peptide substrate (Invitrogen PV3508), 1 mM ATP, and 1 nM enzyme (Invitrogen PV3649) for 2 h at 25° C. Reactions were stopped by addition of 10 μL TR-FRET Dilution Buffer (Invitrogen PV3574) with 30 mM EDTA and 1.5 nM LanthaScreen Tb-CREB pSer133 antibody (Invitrogen PV3566). After 30 min. incubation at room temperature, plates were read on a PHERAstar FS plate reader (BMG Labtech).

Pim-3 = Pim-3 (Homo sapiens (Human), UniProt Q86V86); assay: Pim-3 kinase assay; conditions: 1 mM ATP; read-out: Pim3 IC50
Method: Pim-1 and Pim-3 kinase assays-20 μL reactions were run in white 384 well polystyrene plates dotted with 0.8 μL compound/DMSO in the assay buffer (50 mM Tris, pH 7.5, 0.01% Tween-20, 5 mM mgCl2, 0.01% BSA, 5 mM DTT), containing […] Biotin-labeled BAD peptide substrate (AnaSpec 62269), 1 mM ATP, and 2.5 pM (Pim-1, Invitrogen PV3503) or 1.25 pM (Pim-3, Millipore 14-738) enzyme for 1 h at 25° C. Reactions were stopped by addition of 10 μL STOP Buffer (150 mM Tris, pH=7.5, 150 mM NaCl, 75 mM EDTA, 0.01% Tween-20, 0.3% BSA,) supplemented with Phospho-Bad (Ser112) Antibody (Cell Signaling 9291) diluted 666-fold, and Streptavidin donor beads (PerkinElmer 6760002) along with Protein-A acceptor beads (PerkinElmer 6760137) at 15 μg/mL each. Supplementation of the STOP buffer with beads and stopping the reactions were done under reduced light. Prior to the stopping reactions STOP buffer with beads was preincubated for 1 h in the dark at room temperature. After stopping the reactions, plates were incubated for 1 h in the dark at room temperature before reading on a PHERAstar FS plate reader (BMG Labtech) under reduced light.

Pim-1, sequence (P11309 whole entry): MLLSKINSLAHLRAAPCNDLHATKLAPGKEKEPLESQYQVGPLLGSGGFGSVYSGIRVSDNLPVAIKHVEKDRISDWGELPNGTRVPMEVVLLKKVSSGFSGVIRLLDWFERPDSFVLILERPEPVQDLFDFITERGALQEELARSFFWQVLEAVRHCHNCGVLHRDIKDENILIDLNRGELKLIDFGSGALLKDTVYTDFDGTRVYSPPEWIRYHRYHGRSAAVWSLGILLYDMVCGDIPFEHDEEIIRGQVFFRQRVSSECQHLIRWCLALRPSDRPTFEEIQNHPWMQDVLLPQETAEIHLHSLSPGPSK

Q: How did the IC50 (Pim-1) turn out when `C[C@@H]1C[C@H](N)CN(c2c(NCc3ccc(F)c(-c4c(F)cccc4F)n3)cnc3c2CCC3O)C1` (single isomer, unassigned) [Example 87 (Diastereoisomer 1)] was run?
A: Its IC50 is less than 10 nM.

Q: And the IC50 (Pim-2)?
A: Its IC50 is 1000 to 10000 nM.

Q: What about the IC50 (Pim-3) of the same compound?
A: The IC50 was 10 to 50 nM.

Q: Which IC50 (Pim-1) does the source give for `C[C@@H]1C[C@H](N)CN(c2c(NCc3ccc(F)c(-c4c(F)cccc4F)n3)cnc3c2CC[C@H]3O)C1` (single isomer, unassigned) [Example 87 (Diastereoisomer 2)] here?
A: The IC50 was less than 10 nM.

Q: What about the IC50 (Pim-2) of the same compound?
A: Its IC50 is 100 to 1000 nM.

Q: What about the IC50 (Pim-3) of the same compound?
A: Its IC50 is 10 to 50 nM.

Q: For `N[C@H]1C[C@@H](C(F)(F)F)CN(c2ccncc2NCc2ccc(F)c(-c3c(F)cc(N4CCOCC4)cc3F)n2)C1` (stereo in doubt) [Example 34, 4-((3S, SR)-3-Amino-5-(trifluoromethyl)piperidin-1-yl)-N-((6-(2,6-difluoro-4-morpholinophenyl)-5-fluoropyridin-2-yl)methyl)pyridin-3-amine], which IC50 (Pim-1) is on record?
A: Its IC50 is less than 10 nM.

Q: And the IC50 (Pim-2)?
A: The IC50 was no more than 100 nM.

Q: What about the IC50 (Pim-3) of the same compound?
A: Its IC50 is no more than 10 nM.

Q: What does the source list for `C[C@H]1CN(c2ccncc2NCc2ccc(F)c(-c3c(F)cc(C4(O)CCOC4)cc3F)n2)C[C@@H](N)[C@@H]1O` (stereo partly drawn) [Example 1, (3R,4R,5S)-3-Amino-1-{3-[({6-[2,6-difluoro-4-(3-hydroxytetrahydrofuran-3-yl)phenyl]-5-fluoropyridin-2-yl}methyl)amino]pyridin-4-yl}-5-methylpiperidin-4-ol]?
A: IC50 (Pim-1): < 10 nM; IC50 (Pim-2): ≤ 100 nM; IC50 (Pim-3): ≤ 10 nM

Q: How did the IC50 (Pim-1) turn out when `C[C@H]1CN(c2ccncc2NCc2ccc(F)c(-c3c(F)cc(C4(O)CCC4)cc3F)n2)C[C@@H](N)[C@@H]1O` [Example 2, (3R,4R,5S)-3-Amino-1-(3-(((6-(2,6-difluoro-4-(1-hydroxycyclobutyl)phenyl)-5-fluoropyridin-2-yl)methyl)amino)pyridin-4-yl)-5-methylpiperidin-4-ol] was run?
A: The IC50 was less than 10 nM.

Q: And the IC50 (Pim-2)?
A: Its IC50 is no more than 100 nM.

Q: What about the IC50 (Pim-3) of the same compound?
A: Its IC50 is no more than 10 nM.

Q: What does the source list for `C[C@H]1CN(c2ccncc2NCc2ccc(F)c(-c3c(F)cc(C4(O)CCOCC4)cc3F)n2)C[C@@H](N)[C@@H]1O` [Example 3, (3R,4R,5S)-3-Amino-1-(3-(((6-(2,6-difluoro-4-(4-hydroxytetrahydro-2H-pyran-4-yl)phenyl)-5-fluoropyridin-2-yl)methyl)amino)pyridin-4-yl)-5-methylpiperidin-4-ol]?
A: IC50 (Pim-1): < 10 nM; IC50 (Pim-2): ≤ 100 nM; IC50 (Pim-3): ≤ 10 nM

Q: For `C[C@@H]1C[C@H](N)CN(c2ccncc2NCc2ccc(F)c(-c3c(F)cc(C4(O)CCOC4)cc3F)n2)C1` (stereo partly drawn) [Example 4, 3-(4-{6-[({4-[(3S,5R)-3-Amino-5-methylpiperidin-1-yl]pyridin-3-yl}amino)methyl]-3-fluoropyridin-2-yl}-3,5-difluorophenyl)tetrahydrofuran-3-ol], which IC50 (Pim-1) is on record?
A: Its IC50 is less than 10 nM.

Q: And the IC50 (Pim-2)?
A: Its IC50 is no more than 100 nM.

Q: What about the IC50 (Pim-3) of the same compound?
A: Its IC50 is no more than 10 nM.

Q: `C[C@@H]1C[C@H](N)CN(c2ccncc2NCc2ccc(F)c(-c3c(F)cc(C4(O)CCC4)cc3F)n2)C1` [Example 5, 1-(4-(6-((4-((3S,5R)-3-Amino-5-methylpiperidin-1-yl)pyridin-3-ylamino)methyl)-3-fluoropyridin-2-yl)-3,5-difluorophenyl)cyclobutanol] was tested. Which IC50 (Pim-1) did it give?
A: The IC50 was less than 10 nM.

Q: And the IC50 (Pim-2)?
A: The IC50 was no more than 100 nM.

Q: And the IC50 (Pim-3)?
A: The IC50 was no more than 10 nM.

Q: What does the source list for `C[C@@H]1C[C@H](N)CN(c2ccncc2NCc2ccc(F)c(-c3c(F)cc(C4(O)CCOCC4)cc3F)n2)C1` [Example 6, 4-(4-(6-((4-((3S,5R)-3-Amino-5-methylpiperidin-1-yl)pyridin-3-ylamino)methyl)-3-fluoropyridin-2-yl)-3,5-difluorophenyl)tetrahydro-2H-pyran-4-ol]?
A: IC50 (Pim-1): < 10 nM; IC50 (Pim-2): ≤ 100 nM; IC50 (Pim-3): ≤ 10 nM

Q: Which results are given for `N[C@H]1C[C@@H](C(F)(F)F)CN(c2ccncc2NCc2ccc(F)c(-c3c(F)cc(C4(O)CCC4)cc3F)n2)C1` [Example 7, 1-(4-{6-[({4-[(3S,5R)-3-Amino-5-(trifluoromethyl)piperidin-1-yl]pyridin-3-yl}amino)methyl]-3-fluoropyridin-2-yl}-3,5-difluorophenyl)cyclobutanol]?
A: IC50 (Pim-1): < 10 nM; IC50 (Pim-2): ≤ 100 nM; IC50 (Pim-3): ≤ 10 nM

Q: With `C[C@H]1CN(c2ccncc2NCc2ccc(F)c(-c3c(F)cc(C4(O)CC4)cc3F)n2)C[C@@H](N)[C@@H]1O` [Example 8, (3R,4R,5S)-3-Amino-1-{3-[({6-[2,6-difluoro-4-(1-hydroxycyclopropyl)phenyl]-5-fluoropyridin-2-yl}methyl)amino]pyridin-4-yl}-5-methylpiperidin-4-ol] as the compound, how does the IC50 (Pim-1) read?
A: Its IC50 is less than 10 nM.

Q: What about the IC50 (Pim-2) of the same compound?
A: Its IC50 is 100 to 1000 nM.

Q: What about the IC50 (Pim-3) of the same compound?
A: The IC50 was no more than 10 nM.

Q: With `C[C@H]1CN(c2ccncc2NCc2ccc(F)c(-c3c(F)ccc(C4(O)CC4)c3F)n2)C[C@@H](N)[C@@H]1O` [Example 9, (3R,4R,5S)-3-Amino-1-(3-(((6-(2,6-difluoro-3-(1-hydroxycyclopropyl)phenyl)-5-fluoropyridin-2-yl)methyl)amino)pyridin-4-yl)-5-methylpiperidin-4-ol] as the compound, how does the IC50 (Pim-1) read?
A: The IC50 was less than 10 nM.

Q: What about the IC50 (Pim-2) of the same compound?
A: Its IC50 is 100 to 1000 nM.

Q: And the IC50 (Pim-3)?
A: The IC50 was no more than 10 nM.

Q: Which results are given for `C[C@@H]1C[C@H](N)CN(c2ccncc2NCc2ccc(F)c(-c3c(F)cc(C4(O)CC4)cc3F)n2)C1` [Example 10, 1-(4-{6-[({4-[(3S,5R)-3-Amino-5-methylpiperidin-1-yl]pyridin-3-yl}amino)methyl]-3-fluoropyridin-2-yl}-3,5-difluorophenyl)cyclopropanol]?
A: IC50 (Pim-1): < 10 nM; IC50 (Pim-2): ≤ 100 nM; IC50 (Pim-3): ≤ 10 nM

Q: What does the source list for `C[C@@H]1C[C@H](N)CN(c2ccncc2NCc2ccc(F)c(-c3c(F)ccc(C4(O)CC4)c3F)n2)C1` [Example 11, 1-(3-(6-((4-((3S,5R)-3-Amino-5-methylpiperidin-1-yl)pyridin-3-ylamino)methyl)-3-fluoropyridin-2-yl)-2,4-difluorophenyl)cyclopropanol]?
A: IC50 (Pim-1): < 10 nM; IC50 (Pim-2): 100 to 1000 nM; IC50 (Pim-3): ≤ 10 nM

Q: Which results are given for `C[C@H]1CN(c2ccncc2NCc2ccc(F)c(-c3c(F)cc(CC(C)(C)O)cc3F)n2)C[C@@H](N)[C@@H]1O` [Example 12, (3R,4R,5S)-3-Amino-1-{3-[({6-[2,6-difluoro-4-(2-hydroxy-2-methylpropyl)phenyl]-5-fluoropyridin-2-yl}methyl)amino]pyridin-4-yl}-5-methylpiperidin-4-ol]?
A: IC50 (Pim-1): < 10 nM; IC50 (Pim-2): ≤ 100 nM; IC50 (Pim-3): ≤ 10 nM

Q: For `C[C@@H]1C[C@H](N)CN(c2ccncc2NCc2ccc(F)c(-c3c(F)cc(CC(C)(C)O)cc3F)n2)C1` [Example 13, 1-(4-{6-[({4-[(3S,5R)-3-Amino-5-methylpiperidin-1-yl]pyridin-3-yl}amino)methyl]-3-fluoropyridin-2-yl}-3,5-difluorophenyl)-2-methylpropan-2-ol], which IC50 (Pim-1) is on record?
A: The IC50 was less than 10 nM.

Q: What about the IC50 (Pim-2) of the same compound?
A: The IC50 was no more than 100 nM.

Q: And the IC50 (Pim-3)?
A: Its IC50 is no more than 10 nM.

Q: How did the IC50 (Pim-1) turn out when `C[C@H]1CN(c2ccncc2NCc2ccc(F)c(-c3c(F)cccc3F)n2)C[C@@H](N)[C@@H]1O` [Example 14, (3R,4R,5S)-3-Amino-1-[3-({[6-(2,6-difluorophenyl)-5-fluoropyridin-2-yl]methyl}amino)pyridin-4-yl]-5-methylpiperidin-4-ol] was run?
A: The IC50 was less than 10 nM.

Q: And the IC50 (Pim-2)?
A: The IC50 was no more than 100 nM.

Q: What about the IC50 (Pim-3) of the same compound?
A: The IC50 was no more than 10 nM.

Q: For `COc1cccc(F)c1-c1nc(CNc2cnccc2N2C[C@@H](N)[C@H](O)[C@@H](C)C2)ccc1F` [Example 15, (3R,4R,5S)-3-Amino-1-(3-(((5-fluoro-6-(2-fluoro-6-methoxyphenyl)pyridin-2-yl)methyl)amino)pyridin-4-yl)-5-methylpiperidin-4-ol], which IC50 (Pim-1) is on record?
A: The IC50 was less than 10 nM.

Q: And the IC50 (Pim-2)?
A: The IC50 was 100 to 1000 nM.

Q: What about the IC50 (Pim-3) of the same compound?
A: The IC50 was no more than 10 nM.
